Residues, ends and D or L forms follow the SMILES beside them. *: point of attachment. Cbz = O=C(OCc1ccccc1)*; Boc = CC(C)(C)OC(=O)*
melting point [°C] | SMILES
188 to 190 | Cn1nc2c(-c3ccc(Cl)cc3Cl)cccc2c1C(=O)NCCO
262 to 264 | COc1ccc(-c2c(=O)[nH]c3cc(Cl)c(Cl)cc3[n+]2[O-])cc1
176 to 178 | O=c1[nH]c2ccc(S(=O)CCN3CCC(Cc4ccccc4)CC3)cc2o1 (stereo not given)
294 to 295 | O=C(O)c1ccc2c(c1)Sc1ccc(Cl)cc1C2
223 to 224 | CCCOc1ccc(F)cc1-c1ccc(C(N)=O)c(=O)[nH]1
166 | CONC(=O)c1ccccc1NC(=O)Cc1cccc(Br)c1
94 to 95 | COc1ccc(N2CCN(Cc3nn(C(C)=O)c4cc(F)ccc34)CC2)cc1
256 to 258 | COc1cc2nc(N3CCN(C(=O)C4=CCCC4)CC3)nc(N)c2cc1OC
196 to 199 | O=c1[nH]c2ccccc2cc1CC1CCc2ccccc2N1 (stereo not given)
135 to 136 | COc1ccc(-c2nn(CC3CC3)c(=O)cc2-c2ccc(OC)c(F)c2)cc1
231 to 232 | COC(=O)c1ccc(Nc2ccc(C#N)cc2NC(C)=O)cc1
245 to 247 | COc1cc2c(cc1OC)C(C(S)(C#N)c1ccccc1C(=O)O)=NCC2 (stereo not given)
203 to 204 | COc1cc2c(cc1C(F)(F)F)N(C(=O)N(c1cccc(C)c1)c1ncon1)CC2
175 | COc1ccc(CN2CCC(C(=O)NO)(S(=O)(=O)c3ccc(OC)cc3)CC2)cc1
235 | CC(O)Cc1c2c(cc3c(=O)cc(C(=O)O)oc13)CCCC2 (stereo not given)
231 to 234 | CC(C)OC(=O)N1CCN(c2ccc3oc(-c4ccc(S(C)(=O)=O)cc4F)nc3c2)CC1
226 to 228 | CC(C)NC(=O)c1cccc(I)c1C(=O)Nc1cc(C(F)(F)F)nn1-c1ccccc1Cl
202 to 203 | COc1ccc2c(c1)C(=O)CC1(CCN(c3cc(=O)n(C)c(=O)n3C)CC1)O2
65 to 67 | Cc1cc(C)c(C(=O)c2ccccc2C)c(O)c1
159 to 162 | CCOC(=O)c1cnc2c(NC(=O)c3c(Cl)cccc3Cl)cccc2c1C
123 to 125 | COC(=O)CCC(=O)N(O)c1cccc(OCc2nc3ccccc3s2)c1
250 | CCc1nnc(-c2ccc(NC=O)cc2)n1-c1ccccc1OC
> 300 | CCc1ccc(S(=O)(=O)c2c(N)c3nncn3c3nc4ccccc4nc23)cc1
152 to 155 | COC(=O)c1ccc(C(=O)NCc2cc(O)cc(O)c2)cc1Cl
134 to 135 | CCOc1ccc(CC(=O)O)cc1OCCCc1cn(-c2ccc(C(F)(F)F)cn2)nc1C1CCCCC1
246 to 253 | COC(=O)Nc1nc2ccc(Oc3ccccn3)cc2[nH]1

Further lines, the compound ahead of its results:

SMILES | melting point [°C]
CS(=O)(=O)Nc1ccc([N+](=O)[O-])cc1C=C1CCCCC1 | 174 to 175
C=CCOc1ccc2ccc(O)cc2c1 | 78 to 80
CCCCn1c(-c2ccccc2)c(Cc2c(O)ccc3ccccc23)c(=O)[nH]c1=S | 201 to 203
O=C(O)C12CCCC(C1)C1CCC2C1 (stereo not given) | 158 to 160
O=c1c2ccc([N+](=O)[O-])cc2nc(CSc2ncnc3[nH]cnc23)n1-c1ccccc1Cl | 218
CSC[C@H]1C[C@H](C(=O)O)CS1 (relative stereo) | 74.8 to 76
CCOC(=O)C(CC(C)C)NC(=O)C(Cc1ccccc1)NC(=O)C(CCCCNC(=O)OCc1ccccc1)NC(=O)OC(C)(C)C (stereo not drawn) (Boc-Lys(Cbz)-Phe-Leu-OEt; configuration not given here) | 135 to 136
C(#Cc1ccc(-c2nc3ccccc3s2)cc1)c1ccccc1 | 172 to 173
CCN(CC)C(=O)C(C)(C)Oc1ccc(-c2ccc(N3CCCCC3)cc2)cc1 | 100 to 102
O=C1OC(COc2ccccc2)CN1CCCOc1ccc(CC2SC(=O)N(C(c3ccccc3)(c3ccccc3)c3ccccc3)C2=O)cc1 (stereo not given) | 70 to 73
CC(C)OC1CCC(=O)N1 (stereo not given) | 68 to 71
ClCCCCCCCCOc1ccc2ccccc2c1 | 35
CS(=O)(=O)c1ccc(-n2nc(CO)cc2-c2ccc(-c3ccco3)cc2)cc1 | 176
C=COCCOc1ccc(Oc2ccccc2)cc1 | 51 to 52
Nc1ccc(I)cc1C(=O)c1ccccc1Cl | 120 to 122
CON=CC1=CCCN(C(=O)OCC(=O)N2CCCCC2)C1 | 93 to 94
COc1ccc(NC(C)C)c(S)c1 | 68 to 69
C#Cc1c2c3c(cccc3n1C)C1CC(NC(=O)N(CC)CC)CN(C)C1C2 (stereo not given) | 126
CCCn1c(=S)c2[nH]c(C(C)C)nc2n(CCC)c1=O | 133 to 134
CNCC(O)COc1cc(-c2ccc(C)cc2)nc2cc(C)ccc12 (racemic) | 146 to 150
Clc1nc(Br)cnc1N1CCNCC1 | 114 to 115
N=C(O)c1cc(C(O)=NCCS)c(C(=O)O)cc1C(=O)O | 300
Cc1ccccc1CNCCc1ccc(NC(=N)c2cccs2)cc1 | 105 to 106
Cc1cc(-c2cc(C(F)(F)F)n3ncc(I)c3n2)ccc1C(F)(F)F | 160

Source: a melting point compilation (Tetko et al.; mined from patent text by program, amines drawn as free bases though some values may be those of a salt)
